Legend:
[1] = MTT cytotoxicity assay on HCE-T cells; format: cell-based, human; settings: human, HCE-T human corneal epithelial cells; HCE-T cells, 24 h incubation
Description: The human corneal epithelial cell line HCE-T (Cellosaurus accession: CVCL_1272, RRID: CVCL_1272, RCB: RCB2280) was purchased from Procell Life Science and Technology Co., Ltd. (Wuhan, China). […] were cultured in high-glucose Dulbecco’s Modified Eagle Medium (DMEM), which was purchased from Procell Life Science and Technology Co., Ltd. (Wuhan, China). The high-glucose DMEM was DMEM basic medium supplemented with 15% fetal bovine serum (Procell), 1% penicillin/streptomycin (Procell), 5 μg/mL insulin, and 10 ng/mL human epidermal growth factor (Procell).
HCE-T cells were seeded in 96-well plates (8 × 10^3 cells/well, 100 μL medium) and cultured overnight at 37 °C, 5% CO2 for adhesion. BBR or its metabolites at various concentrations (BBR and M3 at the concentrations of 31.25, 62.5, 125, 250 and 500 µM, M1 and M4 at the concentrations of 25, 50, 100, 200 and 400 µM) in 0.5% DMSO were added and incubated for 24 h, with 0.5% DMSO in culture medium as the vehicle control. Subsequently, 20 μL MTT (5 mg/mL) was added to each well and the cells were cultured at 37 °C for 4 h. Then, the culture medium was removed, and 150 μL DMSO was added to dissolve formazan crystals and the absorbance at 570 nm was measured on a Synergy H1 multifunctional microplate reader (Biotek, Winooski, VT, USA). The IC50 values of test compounds were calculated by Graphpad Prism 8.5 (GraphPad Software Co., San Diego, CA, USA).

zebrafish larvae eye = test: Zebrafish eye length and area experiment; format: in vivo, zebrafish (Danio rerio); settings: zebrafish larvae at 5 dpf vs 0.05% DMSO control; BBR 20-200 µM, M1 20-625 µM
Description: Half of the epiboly embryos (6 hpf under standard conditions) were exposed to solutions (2 mL) of BBR at the concentrations of 20, 50, 100, and 200 µM or M1 at the concentrations of 20, 50, 100, 200, 400, and 625 µM and cultured under standard conditions, taking 0.05% DMSO in saline as the control. The experiment was performed three times using 30 embryos per concentration (n = 90 per group in total). At 5 dpf, embryos were washed 3× with normal medium, transferred to fresh medium, and photographed by E3ISPM20000KPA digital camera (ToupTek, Hangzhou, China), with the magnification of 10–40× and exposure time of 200–500 ms. Then the eye length and area were measured and analyzed using Image J V2.1.X (NIH, Bethesda, MD, USA). Data (eye length/area) were expressed as mean ± SD, compared with the control group, and plotted.

[2] = test system: transgenic mitochondrial fluorescent zebrafish (strain Tg(Xla.Eef1a1:mlsEGFP)); test: Fluorescence microscopy for mitochondrial function; format: in vivo, zebrafish (Danio rerio); settings: 5-dpf larvae; BBR 25 or 50 μM, M1 100 or 200 μM
Description: Strain Tg(Xla.Eef1a1:mlsEGFP) zebrafish larvae (6 hpf) were treated with BBR (25 or 50 μM), M1 (100 or 200 μM), or 0.05% DMSO (control) until 5 dpf, with 30 larvae per treatment and three biological replicates (total 90 larvae per group). Then, 10 larvae were randomly selected from each experimental group and imaged using a motorized-focus continuous-zoom fluorescence microscope AZ100 (Nikon, Japan) with the magnification of 10–40× and exposure time of 200–500 ms. The fluorescence intensity of ocular apoptotic cells in zebrafish larvae and mitochondria throughout the zebrafish were measured and analyzed using NIS-Elements (Nikon Imaging Software, Nikon, Japan). The experiment was conducted three times in parallel.

[3] = test system: mitochondrial complex I (NADH dehydrogenase); test: Mitochondrial complex I activity assay in treated zebrafish larvae; format: in vivo, zebrafish (Danio rerio); settings: BBR 25 or 50 μM, M1 100 or 200 μM, 5 dpf
Description: Wild-type AB strain zebrafish (6 hpf) were treated with BBR (25 or 50 μM), M1 (100 or 200 μM), or 0.05% DMSO (control) until 5 dpf, with 9 larvae per treatment and three biological replicates ([…]). Three zebrafish larvae were harvested per group (3 samples per group) and homogenized on ice following the protocol of the Mitochondrial Respiratory Chain Complex I Activity Assay Kit (Solabor, Beijing, China). Briefly, cell homogenates were centrifuged at 600× g for 5 min at 4 °C, and the supernatants were transferred to new microcentrifuge tubes. The samples were then centrifuged again at 11,000× g for 10 min at 4 °C; the precipitates (containing mitochondria) were used for the complex I activity assay. These precipitates were subjected to ultrasonication in the appropriate reaction buffer, and reactions were set up according to the protocol. After mixing, the OD340 values at time 0 (OD1) and at 2 min (OD2) were recorded using a Synergy H1 multifunctional microplate reader (Biotek, Winooski, VT, USA). The ΔOD value was calculated by subtracting OD2 from OD1. Mitochondrial complex I activity was calculated according to the formula provided in the protocol and expressed as units per mg of sample protein.

[4] = test system: wild-type AB strain zebrafish; test: qPCR gene expression in zebrafish larvae; format: in vivo, zebrafish (Danio rerio); settings: BBR 25 or 50 μM, M1 100 or 200 μM
Description: Wild-type AB strain zebrafish (6 hpf) were treated with BBR (25 or 50 μM), M1 (100 or 200 μM), or 0.05% DMSO (control) until 5 dpf, with 30 larvae per treatment and three biological replicates (total 90 larvae per group). A total of 30 larvae were pooled per sample (3 samples per group), collected, and homogenized. Total RNA was isolated using a commercial RNA extraction kit following the manufacturer’s protocol. The concentration and purity of the extracted RNA were determined by measuring the absorbance at 260 nm and 280 nm using a NanoDrop 2000 ultraviolet-visible spectrophotometer (Thermo, Waltham, MA, USA). A total of 1 µg of RNA from each sample was reverse-transcribed into complementary DNA (cDNA) using a PrimeScript RT reagent kit (Takara Bio Inc., Dalian, China). The reverse transcription reaction was performed in a T100 Thermal Cycler (BIO-RAD, Singapore) under the following conditions: 37 °C for 15 min, followed by 85 °C for 5 s.
The qPCR reactions were carried out to quantify the relative expression levels of target genes, including photoreceptor-related genes (rho and opn1sw), mitochondrial dynamics genes (mfn2 and drp1), autophagy markers (lc3b and p62), apoptosis-related genes (baxa, bcl2a, caspase9, caspase3, and caspase7), and inflammation-related genes (il1b and il6), on a CFX Connect quantitative real-time PCR instrument (BIO-RAD, Singapore). The experiment was performed according to the manufacturer’s instruction. β-actin served as the internal reference, and the experiment was repeated in triplicate.

Row | SMILES | IC50 at 24 h [1] [µM] | eye length and eye area (zebrafish larvae eye) | mitochondrial density [2] | mitochondrial complex I activity [3] | bcl2a expression [4] | expression of baxa, caspase9, caspase3 and caspase7 [4] | expression of drp1 [4] | expression of lc3b [4] | expression of mfn2 [4] | expression of rho and opn1sw genes [4] | p62 levels [4] | transcription of il1β and il6 [4]
1 | COc1ccc2cc3[n+](cc2c1OC)CCc1cc2c(cc1-3)OCO2 [BBR, berberine] | 301 | significantly and dose-dependently reduced | decrease in the mitochondrial density | dose-dependently suppressed | dose-dependently reduced bcl2a expression | increasing the expression of baxa, caspase9, caspase3 and caspase7 | increasing that of drp1 in a concentration-dependent manner | decreasing the expression of lc3b | decreased the expression of mfn2 dose-dependently | reduced the expression of these two genes in a dose-dependent manner | elevation in p62 levels | promoted the transcription of proinflammatory cytokine genes il1β and il6
2 | COc1ccc2cc3[n+](cc2c1O)CCc1cc2c(cc1-3)OCO2 [M1, berberrubine] | 232 | significantly and dose-dependently reduced | decrease in the mitochondrial density | marked, dose-dependent decrease | dose-dependently reduced bcl2a expression | increasing the expression of baxa, caspase9, caspase3 and caspase7 | increasing that of drp1 in a concentration-dependent manner | decreasing the expression of lc3b | decreased the expression of mfn2 dose-dependently | reduced the expression of these two genes in a dose-dependent manner | elevation in p62 levels | promoted the transcription of proinflammatory cytokine genes il1β and il6
